According to US11179391B2, “Compound with kinase inhibitory activity and preparation method and use thereof” (priority 2017, dated 2021):
Counter-ions that a name gives are not always drawn. Like-named read-outs stand apart in the source and are kept apart here.

Tests used:
Format in all cases: biochemical
[1] = molecular target: CDK4/CycD3 (Homo sapiens, UniProt P11802); assay: Determination of CDK activity (Caliper mobility shift, FAM-P8 peptide): CDK4; conditions: read-out: CDK4 enzymatic inhibitory activity (IC50)
Description: (§1) In vitro, CDK (CDK4, CDK6, CDK1, CDK2, CDK7, and CDK9) kinase activity was tested by the following method.
(§2) CDK and raw materials used here: CDK4/CycD3 (Carna, Cat. No 04-105, Lot. No 10CBS-0429 C, GST-CDK4(1-303end)/GST-CycD3(1-292end)); CDK6/cycD3 (Carna, Cat. No 04-107, Lot. No 09CBS-0622K, GST-CDK6(1-326(end))); CDK1/CyclinB (Millipore, Cat. 14-450k, Lot. No 25729U, His-CDK1+GST-cyclinB); CDK2/CycA2 (Carna, Cat. No 04-103, Lot. No 06CBS-3024, GST-CDK2 (1-298(end))); CDK7/CyclinH/MAT1 (Millipore, Cat. No 14-476M, Lot. No WAB0365-A, His-CDK7+GST-MAT1+cyclinH); CDK9/cyclinTl (Millipore, Cat. No 14-685K, Lot. No. 2476163-A, His-CDK9+cyclinTl); Peptide FAM-P8 (GL Biochem, Cat. No. 112396, Lot. No. P100804-XZ112396); ATP (Sigma, Cat. No. A7699-1G, CAS No. 987-65-5); DMSO (Sigma, Cat. No. D2650, Lot. No. 474382); EDTA (Sigma, Cat. No. E5134, CAS No. 60-00-4); 96-well plate (Corning, Cat. No. 3365, Lot. No. 22008026); 384-well plate (Corning, Cat. No. 3573, Lot. No. 12608008); Staurosporine (Sigma, Cat. No. S4400-1MG, Lot. No. 046K4080).
(§3) 1. Prepared 1× Kinase Buffer and Stop Buffer for the Test
2) 1× Kinase Base Buffer (CDK4).
(§4) 1) Diluted the compound to 50 times of the maximum concentration with 100% DMSO. For example, if the desired maximum inhibitory concentration is 10 μM, then a DMSO solution of 500 μM concentration is required.
(§5) 2) Transferred the compound to a 96-well plate and serially diluted the compound from a 100% DMSO solution at a ratio of 30 μm to 60 μm for a total of 10 concentrations gradients. 3) Transferred 100 μm of 100% DMSO to two empty wells as a no compound control and a no enzyme control.
(§6) 4) Prepared intermediate plate and transferred the compound of 10 μm concentration from the original plate to the intermediate plate, and then 90 μm of 1× kinase buffer was added and mixed by shaking for 10 min.
(§7) 4) Preparing intermediate plate and transferred the compound of […] concentration from the original plate to the intermediate plate, and then 90 μm of 1× kinase buffer was added and mixed by shaking for 10 min.
(§8) 1) Transferred 5 μm of each compound from the 96-well intermediate plate to a 384-well plate. For example, A1 of the 96-well plate was transferred to A1 and A2 of the 384-well plate. A2 of the 96-well plate was transferred to A3 and A4 of the 384-well plate, and so on.
(§9) 1) Prepared a 2.5× enzyme solution: added kinase into 1× kinase base buffer.
(§10) 2) Prepared a 2.5× peptide solution: added FAM-labeled peptide and ATP into the 1× kinase base buffer.
(§11) 3) Transferred the 2.5× enzyme solution to the assay plate: Assay plate already contained 5 μm of 10% DMSO and transferred 10 μm of 2.5× enzyme solution to each well.
(§12) 4) Incubated at room temperature for 10 min.
(§13) 5) Transferred the 2.5× peptide solution to the assay plate: added 10 μm of 2.5× peptide solution to each well of the 384-well assay plate.
(§14) 6) Kinase reaction and termination: incubated at 28° C. for a specified period and added 25 μm of stop buffer to stop the reaction.
(§15) 5. Caliper Reading: Collect Data on Caliper.
(§16) 1) Copied conversion data from Caliper program and Converted conversion values to inhibition values: Inhibition rate (%)=(1−OD value of the compound-OD value of the control well)/(OD value of the control empty-OD value of the control well)*100%.
(§17) 2) Fitted the data in XLFit excel add-in version 4.3.1 to give the corresponding IC50 values.

[2] = molecular target: CDK2/CycA2 (Homo sapiens, UniProt P24941); assay: Determination of CDK activity (Caliper mobility shift, FAM-P8 peptide): CDK2; conditions: read-out: CDK2 enzymatic inhibitory activity (IC50)
Description: as §1, §3
(§18) 1) 1× Kinase Base Buffer (CDK1, 2, and 6).
as §4, §5
(§19) 1) Transferred 5 μm of each compound from the 96-well intermediate plate to a 384-well plate. […] A2 of the 96-well plate was transferred to A3 and A4 of the 384-well plate, and so on.
as §9, §10, §11, §12, §13, §14, §15, §16, §17

[3] = molecular target: CDK1/CyclinB (Homo sapiens, UniProt P06493); assay: Determination of CDK activity (Caliper mobility shift, FAM-P8 peptide): CDK1; conditions: read-out: CDK1 enzymatic inhibitory activity (IC50)
Description: as §1, §3, §18, §4, §5, §19, §9, §10, §11, §12, §13, §14, §15, §16, §17

[4] = molecular target: CDK9/cyclinTl (Homo sapiens, UniProt P50750); assay: Determination of CDK activity (Caliper mobility shift, FAM-P8 peptide): CDK9; conditions: read-out: CDK9 enzymatic inhibitory activity (IC50)
Description: as §1, §3
(§20) 3) 1× Kinase Base Buffer (CDK7 and 9).
as §4, §5, §19, §9, §10, §11, §12, §13, §14, §15, §16, §17

[5] = molecular target: CDK7/CyclinH/MAT1 (Homo sapiens, UniProt P50613); assay: Determination of CDK activity (Caliper mobility shift, FAM-P8 peptide): CDK7; conditions: read-out: CDK7 enzymatic inhibitory activity (IC50)
Description: as §1, §2, §3, §20, §4, §5, §6, §7, §8, §9, §10, §11, §12, §13, §14, §15, §16, §17

[6] = molecular target: CDK6/cycD3 (Homo sapiens, UniProt Q00534); assay: Determination of CDK activity (Caliper mobility shift, FAM-P8 peptide): CDK6; conditions: read-out: CDK6 enzymatic inhibitory activity (IC50)
Description: as §1, §2, §3, §18, §4, §5, §6, §7, §8, §9, §10, §11, §12, §13, §14, §15, §16, §17

CDK4/CycD3, sequence (P11802 whole entry): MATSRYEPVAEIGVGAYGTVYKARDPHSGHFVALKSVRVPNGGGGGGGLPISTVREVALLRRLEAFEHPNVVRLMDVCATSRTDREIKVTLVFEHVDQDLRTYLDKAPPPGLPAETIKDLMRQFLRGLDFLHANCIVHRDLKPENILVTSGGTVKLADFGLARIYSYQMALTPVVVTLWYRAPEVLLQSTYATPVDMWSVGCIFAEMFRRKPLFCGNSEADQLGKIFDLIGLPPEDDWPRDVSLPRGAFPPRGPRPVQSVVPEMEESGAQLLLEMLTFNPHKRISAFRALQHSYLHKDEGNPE
CDK4/CycD3, sequence (P30281 whole entry partner): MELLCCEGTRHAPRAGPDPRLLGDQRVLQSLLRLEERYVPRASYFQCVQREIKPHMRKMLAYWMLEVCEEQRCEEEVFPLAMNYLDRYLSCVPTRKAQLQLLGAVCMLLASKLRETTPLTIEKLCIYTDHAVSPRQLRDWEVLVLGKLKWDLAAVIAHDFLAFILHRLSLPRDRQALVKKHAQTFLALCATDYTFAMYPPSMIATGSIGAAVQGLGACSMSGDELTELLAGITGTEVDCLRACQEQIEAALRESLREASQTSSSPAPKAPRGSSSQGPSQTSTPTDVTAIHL
CDK9/cyclinTl, sequence (P50750 whole entry): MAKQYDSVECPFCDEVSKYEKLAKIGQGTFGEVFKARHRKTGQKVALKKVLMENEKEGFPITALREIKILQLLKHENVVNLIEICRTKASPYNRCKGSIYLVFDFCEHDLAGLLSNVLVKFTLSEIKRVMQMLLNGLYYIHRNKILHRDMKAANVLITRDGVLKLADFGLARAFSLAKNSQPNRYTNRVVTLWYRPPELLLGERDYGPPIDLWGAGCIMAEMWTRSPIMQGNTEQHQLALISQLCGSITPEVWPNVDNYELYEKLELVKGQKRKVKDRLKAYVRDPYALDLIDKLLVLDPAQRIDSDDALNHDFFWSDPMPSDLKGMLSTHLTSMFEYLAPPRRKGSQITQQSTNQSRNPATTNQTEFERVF
CDK9/cyclinTl, sequence (O60563 whole entry partner): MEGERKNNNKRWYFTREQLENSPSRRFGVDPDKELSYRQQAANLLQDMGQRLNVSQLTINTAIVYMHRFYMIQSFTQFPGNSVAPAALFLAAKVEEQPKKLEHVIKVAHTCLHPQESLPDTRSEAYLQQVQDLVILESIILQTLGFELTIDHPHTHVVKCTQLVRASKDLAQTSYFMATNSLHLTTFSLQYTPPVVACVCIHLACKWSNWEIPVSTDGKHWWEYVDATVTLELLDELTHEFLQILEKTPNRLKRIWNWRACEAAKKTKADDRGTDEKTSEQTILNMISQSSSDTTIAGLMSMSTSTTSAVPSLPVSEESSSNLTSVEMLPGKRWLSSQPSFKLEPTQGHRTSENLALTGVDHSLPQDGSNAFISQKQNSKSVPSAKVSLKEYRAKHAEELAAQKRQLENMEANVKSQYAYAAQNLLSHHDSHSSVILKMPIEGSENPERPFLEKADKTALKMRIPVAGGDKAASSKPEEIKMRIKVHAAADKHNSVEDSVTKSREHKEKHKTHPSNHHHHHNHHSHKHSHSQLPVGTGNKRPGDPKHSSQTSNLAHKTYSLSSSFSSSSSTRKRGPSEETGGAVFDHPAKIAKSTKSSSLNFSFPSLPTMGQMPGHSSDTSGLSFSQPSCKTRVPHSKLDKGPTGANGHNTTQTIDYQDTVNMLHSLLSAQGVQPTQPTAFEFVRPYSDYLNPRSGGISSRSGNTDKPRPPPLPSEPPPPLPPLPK
CDK7/CyclinH/MAT1, sequence (P50613 whole entry): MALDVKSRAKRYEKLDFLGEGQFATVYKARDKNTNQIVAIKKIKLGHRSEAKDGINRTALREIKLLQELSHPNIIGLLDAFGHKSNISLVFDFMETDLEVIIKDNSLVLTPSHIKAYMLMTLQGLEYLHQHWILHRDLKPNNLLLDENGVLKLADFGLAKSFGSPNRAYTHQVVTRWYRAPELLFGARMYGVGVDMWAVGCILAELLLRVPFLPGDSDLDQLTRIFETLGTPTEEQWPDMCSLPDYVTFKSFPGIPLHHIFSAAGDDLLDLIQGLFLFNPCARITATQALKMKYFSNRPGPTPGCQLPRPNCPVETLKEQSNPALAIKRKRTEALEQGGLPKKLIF
CDK7/CyclinH/MAT1, sequence (P51946 whole entry partner): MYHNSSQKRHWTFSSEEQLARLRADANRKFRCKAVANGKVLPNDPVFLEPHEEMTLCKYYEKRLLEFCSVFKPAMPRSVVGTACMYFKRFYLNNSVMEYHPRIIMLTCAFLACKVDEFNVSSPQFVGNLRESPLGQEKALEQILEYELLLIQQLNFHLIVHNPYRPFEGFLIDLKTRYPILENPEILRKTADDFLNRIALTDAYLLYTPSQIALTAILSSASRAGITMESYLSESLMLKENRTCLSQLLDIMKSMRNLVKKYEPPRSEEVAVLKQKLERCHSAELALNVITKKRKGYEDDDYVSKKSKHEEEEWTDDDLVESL
CDK7/CyclinH/MAT1, sequence (P51948 whole entry partner): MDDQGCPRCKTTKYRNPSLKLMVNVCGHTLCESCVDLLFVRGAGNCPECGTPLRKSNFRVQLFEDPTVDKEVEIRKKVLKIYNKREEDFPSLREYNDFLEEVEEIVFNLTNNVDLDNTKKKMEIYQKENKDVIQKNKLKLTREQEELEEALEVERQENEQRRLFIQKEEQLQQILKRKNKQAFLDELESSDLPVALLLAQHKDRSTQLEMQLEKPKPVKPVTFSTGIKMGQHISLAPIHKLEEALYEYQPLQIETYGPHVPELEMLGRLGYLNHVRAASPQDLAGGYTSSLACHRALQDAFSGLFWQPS
CDK1/CyclinB, sequence (P06493 whole entry): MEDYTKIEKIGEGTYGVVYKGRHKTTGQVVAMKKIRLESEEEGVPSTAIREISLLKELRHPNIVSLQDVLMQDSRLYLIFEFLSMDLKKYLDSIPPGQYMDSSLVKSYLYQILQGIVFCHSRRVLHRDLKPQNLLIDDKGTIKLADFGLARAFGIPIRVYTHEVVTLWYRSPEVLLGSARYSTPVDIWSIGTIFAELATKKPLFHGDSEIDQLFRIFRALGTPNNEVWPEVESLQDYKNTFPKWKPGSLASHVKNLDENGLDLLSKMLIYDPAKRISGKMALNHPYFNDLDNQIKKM
CDK1/CyclinB, sequence (P14635 whole entry partner): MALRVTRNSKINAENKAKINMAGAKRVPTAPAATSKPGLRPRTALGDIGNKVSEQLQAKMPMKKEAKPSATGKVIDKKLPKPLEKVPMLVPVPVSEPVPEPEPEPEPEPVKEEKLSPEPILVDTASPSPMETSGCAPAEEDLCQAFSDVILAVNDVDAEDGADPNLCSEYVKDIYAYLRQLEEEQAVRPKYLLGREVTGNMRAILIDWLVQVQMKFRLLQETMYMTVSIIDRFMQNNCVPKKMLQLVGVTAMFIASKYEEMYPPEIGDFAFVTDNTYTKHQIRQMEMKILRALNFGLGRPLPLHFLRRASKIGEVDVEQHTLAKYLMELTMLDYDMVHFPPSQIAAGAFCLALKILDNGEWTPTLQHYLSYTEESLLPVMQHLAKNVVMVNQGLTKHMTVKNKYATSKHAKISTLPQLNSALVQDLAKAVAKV
CDK6/cycD3, sequence (Q00534 whole entry): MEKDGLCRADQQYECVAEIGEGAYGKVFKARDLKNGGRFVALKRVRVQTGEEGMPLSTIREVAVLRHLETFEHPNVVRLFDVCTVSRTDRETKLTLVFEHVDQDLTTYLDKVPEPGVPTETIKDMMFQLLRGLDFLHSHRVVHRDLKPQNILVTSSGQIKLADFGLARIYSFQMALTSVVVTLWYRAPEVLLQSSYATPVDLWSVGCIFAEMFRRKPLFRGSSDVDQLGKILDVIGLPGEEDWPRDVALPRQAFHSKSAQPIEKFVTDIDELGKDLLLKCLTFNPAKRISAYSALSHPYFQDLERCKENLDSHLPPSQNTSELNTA
CDK6/cycD3, sequence (P30281 whole entry partner): as the sequence (P30281 whole entry partner) above

SMILES	IC50 ([1]; CDK4/CycD3) [nM]	IC50 ([2]; CDK2/CycA2) [nM]	IC50 ([3]; CDK1/CyclinB) [nM]	IC50 ([4]; CDK9/cyclinTl) [nM]	IC50 ([5]; CDK7/CyclinH/MAT1) [nM]	IC50 ([6]; CDK6/cycD3) [nM]	IC50 [1] [nM]	IC50 [2] [nM]	IC50 [3] [nM]	IC50 [4] [nM]	IC50 [5] [nM]	IC50 [6] [nM]
C=C(c1ccc(Nc2ncc(F)c(-c3cc(F)c4nc(C)n(C(C)C)c4c3)n2)nc1)C1CCNCC1 [Example 34]	100 to 500	100 to 500	500 to 1000	100 to 500	1000 to 10000	100 to 500						
C=C(c1ccc(Nc2ncc(F)c(-c3cc(F)c4nc(C)n(C(C)C)c4c3)n2)nc1)C1CCN(C)CC1 [Example 35]	< 100	< 100	100 to 500	< 100	1000 to 10000	100 to 500						
Cc1nc2c(F)cc(-c3nc(Nc4ccc(C(O)C5CCNCC5)cn4)ncc3F)cc2n1C(C)C (stereo not drawn) [Example 42, (6-((5-Fluoro-4-(4-fluoro-1-isopropyl-2-methyl-1H-benzo[d]imidazol-6-yl)pyrimidin-2-yl)amino)pyridin-3-yl)(piperidin-4-yl) methanol hydrochloride]							100 to 500	< 100	100 to 500	100 to 500	100 to 500	100 to 500
Cc1nc2c(F)cc(-c3nc(Nc4ccc([C@H](O)C5CCNCC5)cn4)ncc3F)cc2n1C(C)C [Example 43]	< 100	100 to 500	100 to 500	100 to 500	500 to 1000	100 to 500						
CCN1CCC([C@@H](OC)c2ccc(Nc3ncc(F)c(-c4cc(F)c5nc(C)n(C(C)C)c5c4)n3)nc2)CC1 [Example 45]	< 100	< 100	100 to 500	100 to 500	1000 to 10000	100 to 500						
CCN1CCC([C@H](OC)c2ccc(Nc3ncc(F)c(-c4cc(F)c5nc(C)n(C(C)C)c5c4)n3)nc2)CC1 [Example 46]	< 100	< 100	100 to 500	100 to 500	1000 to 10000	100 to 500						
Cc1nc2c(F)cc(-c3nc(Nc4ccc([C@H](O)C5CCN(C)CC5)cn4)ncc3F)cc2n1C(C)C [Example 49]	< 100	100 to 500	100 to 500	100 to 500	100 to 500	< 100						

Results, then the compound that gave them:

IC50 ([1]; CDK4/CycD3) [nM]	IC50 ([2]; CDK2/CycA2) [nM]	IC50 ([3]; CDK1/CyclinB) [nM]	IC50 ([4]; CDK9/cyclinTl) [nM]	IC50 ([5]; CDK7/CyclinH/MAT1) [nM]	IC50 ([6]; CDK6/cycD3) [nM]	IC50 [1] [nM]	IC50 [2] [nM]	IC50 [3] [nM]	IC50 [4] [nM]	IC50 [5] [nM]	IC50 [6] [nM]	SMILES
100 to 500	500 to 1000	500 to 1000	500 to 1000	1000 to 10000	100 to 500							C=C(c1ccc(Nc2ncc(F)c(-c3cc(F)c4nc(C)n(C(C)C)c4c3)n2)nc1)N1CCN(CC)CC1 [Example 36]
100 to 500	100 to 500	100 to 500	500 to 1000	100 to 500	100 to 500							Cc1nc2c(F)cc(-c3nc(Nc4ccc([C@@H](O)C5CCNCC5)cn4)ncc3F)cc2n1C(C)C [Example 44]
< 100	< 100	< 100	100 to 500	100 to 500	100 to 500							Cc1nc2c(F)cc(-c3nc(Nc4ccc([C@@H](O)C5CCN(C)CC5)cn4)ncc3F)cc2n1C(C)C [Example 50]
